# Results: ChEMBL document CHEMBL1201862, “PubChem BioAssay data set” (2004)
#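 Each compound was tested at five concentrations against cells in 96-well plates for 48 hours. Here, GI50 denotes the concentration required for 50% inhibition of growth.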 Active and inactive are the calls of the source. Cut-off read from the data, not from the text of the source: active = GI50 up to about 1.1 µM and inactive = higher.
# Experiments:
# Assay in all cases: NCI anticancer screen, dose series, 48 h
# 786-0 = system: 786-0
# A498 = system: A498
# A549 = system: A549
# ACHN = system: ACHN
# BT-549 = system: BT-549
# CAKI-1 = system: CAKI-1
# CCRF-CEM = system: CCRF-CEM
# COLO 205 = system: COLO 205
# DU-145 = system: DU-145
# EKVX = system: EKVX
# HCC 2998 = system: HCC 2998
# HCT-116 = system: HCT-116
# HCT-15 = system: HCT-15
# HL-60 = system: HL-60
# HOP-62 = system: HOP-62
# HOP-92 = system: HOP-92
# HT-29 = system: HT-29
# Hs-578T = system: Hs-578T
# IGROV-1 = system: IGROV-1
# K562 = system: K562
# KM12 = system: KM12
# LOX IMVI = system: LOX IMVI
# M14 = system: M14
# MCF7 = system: MCF7
# MDA-MB-231 = system: MDA-MB-231
# MDA-MB-435 = system: MDA-MB-435
# MDA-N = system: MDA-N
# MOLT-4 = system: MOLT-4
# NCI-H226 = system: NCI-H226
# NCI-H23 = system: NCI-H23
# NCI-H460 = system: NCI-H460
# NCI-H522 = system: NCI-H522
# NCI/ADR-RES = system: NCI/ADR-RES
# OVCAR-3 = system: OVCAR-3
# OVCAR-4 = system: OVCAR-4
# OVCAR-5 = system: OVCAR-5
# OVCAR-8 = system: OVCAR-8
# PC-3 = system: PC-3
# RPMI-8226 = system: RPMI-8226
# RXF 393 = system: RXF 393
# SF-268 = system: SF-268
# SF-295 = system: SF-295
# SF-539 = system: SF-539
# SK-MEL-2 = system: SK-MEL-2
# SK-OV-3 = system: SK-OV-3
# SN12C = system: SN12C
# SNB-19 = system: SNB-19
# SNB-75 = system: SNB-75
# SW-620 = system: SW-620
# T47D = system: T47D
# TK-10 = system: TK-10
# U-251 = system: U-251
# UACC-257 = system: UACC-257
# UACC-62 = system: UACC-62
# UO-31 = system: UO-31
# Malme-3M = system: Malme-3M
# SK-MEL-28 = system: SK-MEL-28
# SK-MEL-5 = system: SK-MEL-5
# SR = system: SR
smiles,measurement,setting,value
CC1=CC(=O)/C(=C/n2c(=S)[nH]c3ccccc32)C(=O)O1,GI50,786-0,> 100 µM (inactive)
same,GI50,A498,> 100 µM (inactive)
same,GI50,A549,> 100 µM (inactive)
same,GI50,ACHN,> 100 µM (inactive)
same,GI50,BT-549,> 100 µM (inactive)
same,GI50,CAKI-1,> 100 µM (inactive)
same,GI50,CCRF-CEM,58.9 µM (inactive)
same,GI50,COLO 205,> 100 µM (inactive)
same,GI50,DU-145,> 100 µM (inactive)
same,GI50,EKVX,76.4 µM (inactive)
same,GI50,HCC 2998,> 100 µM (inactive)
same,GI50,HCT-116,> 100 µM (inactive)
same,GI50,HCT-15,> 100 µM
same,GI50,HL-60,< 0.01 µM (active)
same,GI50,HOP-62,> 100 µM (inactive)
same,GI50,HOP-92,> 100 µM (inactive)
same,GI50,HT-29,> 100 µM (inactive)
same,GI50,Hs-578T,72.8 µM (inactive)
same,GI50,IGROV-1,> 100 µM (inactive)
same,GI50,K562,> 100 µM (inactive)
same,GI50,KM12,> 100 µM (inactive)
same,GI50,LOX IMVI,> 100 µM (inactive)
same,GI50,M14,> 100 µM (inactive)
same,GI50,MCF7,> 100 µM (inactive)
same,GI50,MDA-MB-231,> 100 µM (inactive)
same,GI50,MDA-MB-435,> 100 µM (inactive)
same,GI50,MDA-N,> 100 µM (inactive)
same,GI50,MOLT-4,> 100 µM (inactive)
same,GI50,NCI-H226,> 100 µM (inactive)
same,GI50,NCI-H23,> 100 µM (inactive)
same,GI50,NCI-H460,> 100 µM (inactive)
same,GI50,NCI-H522,> 100 µM (inactive)
same,GI50,NCI/ADR-RES,> 100 µM (inactive)
same,GI50,OVCAR-3,> 100 µM (inactive)
same,GI50,OVCAR-4,> 100 µM (inactive)
same,GI50,OVCAR-5,> 100 µM (inactive)
same,GI50,OVCAR-8,> 100 µM (inactive)
same,GI50,PC-3,> 100 µM (inactive)
same,GI50,RPMI-8226,> 100 µM (inactive)
same,GI50,RXF 393,51.5 µM (inactive)
same,GI50,SF-268,> 100 µM (inactive)
same,GI50,SF-295,> 100 µM (inactive)
same,GI50,SF-539,> 100 µM (inactive)
same,GI50,SK-MEL-2,> 100 µM (inactive)
same,GI50,SK-OV-3,> 100 µM (inactive)
same,GI50,SN12C,> 100 µM (inactive)
same,GI50,SNB-19,> 100 µM (inactive)
same,GI50,SNB-75,35.7 µM (inactive)
same,GI50,SW-620,> 100 µM (inactive)
same,GI50,T47D,> 100 µM (inactive)
same,GI50,TK-10,> 100 µM (inactive)
same,GI50,U-251,> 100 µM (inactive)
same,GI50,UACC-257,> 100 µM (inactive)
same,GI50,UACC-62,> 100 µM (inactive)
same,GI50,UO-31,> 100 µM (inactive)
Cc1c2c(n3c(nc4ccccc43)c1C#N)NCC2,GI50,786-0,> 10 µM (inactive)
same,GI50,A498,> 10 µM (inactive)
same,GI50,A549,> 10 µM (inactive)
same,GI50,ACHN,> 10 µM (inactive)
same,GI50,BT-549,> 10 µM (inactive)
same,GI50,CAKI-1,> 10 µM (inactive)
same,GI50,CCRF-CEM,> 10 µM (inactive)
same,GI50,COLO 205,> 10 µM (inactive)
same,GI50,DU-145,> 10 µM (inactive)
same,GI50,EKVX,> 10 µM (inactive)
same,GI50,HCT-116,> 10 µM (inactive)
same,GI50,HCT-15,> 10 µM
same,GI50,HL-60,> 10 µM (inactive)
same,GI50,HOP-62,> 10 µM (inactive)
same,GI50,HOP-92,> 10 µM (inactive)
same,GI50,HT-29,> 10 µM (inactive)
same,GI50,Hs-578T,> 10 µM (inactive)
same,GI50,IGROV-1,> 10 µM (inactive)
same,GI50,K562,> 10 µM (inactive)
same,GI50,KM12,> 10 µM (inactive)
same,GI50,LOX IMVI,> 10 µM (inactive)
same,GI50,M14,> 10 µM (inactive)
same,GI50,MCF7,> 10 µM (inactive)
same,GI50,MDA-MB-231,> 10 µM (inactive)
same,GI50,MDA-MB-435,> 10 µM (inactive)
same,GI50,MDA-N,> 10 µM (inactive)
same,GI50,MOLT-4,> 10 µM (inactive)
same,GI50,Malme-3M,> 10 µM (inactive)
same,GI50,NCI-H226,> 10 µM (inactive)
same,GI50,NCI-H23,> 10 µM (inactive)
same,GI50,NCI-H460,> 10 µM (inactive)
same,GI50,NCI/ADR-RES,> 10 µM (inactive)
same,GI50,OVCAR-3,> 10 µM (inactive)
same,GI50,OVCAR-4,> 10 µM (inactive)
same,GI50,OVCAR-5,> 10 µM (inactive)
same,GI50,OVCAR-8,> 10 µM (inactive)
same,GI50,PC-3,> 10 µM (inactive)
same,GI50,RPMI-8226,> 10 µM (inactive)
same,GI50,RXF 393,> 10 µM (inactive)
same,GI50,SF-268,> 10 µM (inactive)
same,GI50,SF-295,> 10 µM (inactive)
same,GI50,SF-539,> 10 µM (inactive)
same,GI50,SK-MEL-28,> 10 µM (inactive)
same,GI50,SK-MEL-5,> 10 µM (inactive)
same,GI50,SK-OV-3,> 10 µM (inactive)
same,GI50,SN12C,> 10 µM (inactive)
same,GI50,SNB-19,> 10 µM (inactive)
same,GI50,SNB-75,> 10 µM (inactive)
same,GI50,SR,> 10 µM (inactive)
same,GI50,SW-620,> 10 µM (inactive)
same,GI50,T47D,> 10 µM (inactive)
same,GI50,TK-10,> 10 µM (inactive)
same,GI50,U-251,> 10 µM (inactive)
same,GI50,UACC-257,> 10 µM (inactive)
same,GI50,UACC-62,> 10 µM (inactive)
same,GI50,UO-31,> 10 µM (inactive)
C=C(C)C1CCC2(CO)C(O)CC3(C)C(CCC4C5(C)CCC(O)C(C)(C)C5CCC43C)C12 (centres undefined),GI50,786-0,8.09 µM (inactive)
same,GI50,A498,10.9 µM (inactive)
same,GI50,A549,10.6 µM (inactive)
same,GI50,ACHN,3.57 µM (inactive)
same,GI50,BT-549,11.6 µM (inactive)
same,GI50,CAKI-1,3.73 µM (inactive)
same,GI50,CCRF-CEM,50 µM (inactive)
same,GI50,DU-145,35.6 µM (inactive)
same,GI50,EKVX,13.9 µM (inactive)
same,GI50,HCT-116,22.4 µM (inactive)
same,GI50,HCT-15,11.9 µM
same,GI50,HL-60,25.3 µM (inactive)
same,GI50,HOP-62,4.16 µM (inactive)
same,GI50,HOP-92,11.4 µM (inactive)
same,GI50,HT-29,6.53 µM (inactive)
same,GI50,Hs-578T,7.76 µM (inactive)
same,GI50,IGROV-1,11.7 µM (inactive)
same,GI50,K562,9.77 µM (inactive)
same,GI50,KM12,6.97 µM (inactive)
same,GI50,LOX IMVI,9.98 µM (inactive)
same,GI50,M14,18.6 µM (inactive)
same,GI50,MCF7,11.6 µM (inactive)
same,GI50,MDA-MB-231,12.7 µM (inactive)
same,GI50,MDA-MB-435,7.74 µM (inactive)
same,GI50,MDA-N,12.1 µM (inactive)
same,GI50,MOLT-4,27.4 µM (inactive)
same,GI50,Malme-3M,13.6 µM (inactive)
same,GI50,NCI-H226,34.6 µM (inactive)
same,GI50,NCI-H23,> 10 µM (inactive)
same,GI50,NCI-H460,11.8 µM (inactive)
same,GI50,NCI-H522,6.58 µM (inactive)
same,GI50,NCI/ADR-RES,15.3 µM (inactive)
same,GI50,OVCAR-3,11.4 µM (inactive)
same,GI50,OVCAR-5,> 100 µM (inactive)
same,GI50,OVCAR-8,3.85 µM (inactive)
same,GI50,PC-3,6.01 µM (inactive)
same,GI50,RXF 393,2.32 µM (inactive)
same,GI50,SF-268,8.36 µM (inactive)
same,GI50,SF-295,2.84 µM (inactive)
same,GI50,SF-539,12.7 µM (inactive)
same,GI50,SK-MEL-28,10.4 µM (inactive)
same,GI50,SK-MEL-2,10.3 µM (inactive)
same,GI50,SK-MEL-5,5.14 µM (inactive)
same,GI50,SN12C,16.5 µM (inactive)
same,GI50,SNB-19,5.36 µM (inactive)
same,GI50,SNB-75,3.7 µM (inactive)
same,GI50,SR,42.8 µM (inactive)
same,GI50,SW-620,21.8 µM (inactive)
same,GI50,T47D,1.06 µM (active)
same,GI50,TK-10,16.1 µM (inactive)
same,GI50,U-251,2.81 µM (inactive)
same,GI50,UACC-257,10.5 µM (inactive)
same,GI50,UO-31,3.82 µM (inactive)
